# Reference: US9382258B2, “Agents for treating pain and uses thereof” (AbbVie Inc., priority 2012, dated 2016)
# Biological target: T1, human Cav2.2 (Homo sapiens, UniProt Q00975)
# T1 construct: cells endogenously expressing human Cav2.2; endogenous in cells; host or cells: IMR32 cells
# Experiment: Calcium flux (FLIPR, Calcium 4 dye) in IMR32 cells endogenously expressing human Cav2.2
# Format: cell-based
# Details: 60 minute pre-incubation, 2 μM nifedipine to block L-type channels, depolarized with 80 mM KCl, 5 mM CaCl2, average of n≥2 runs unless marked *
# Method: Compounds were tested for effect on calcium flux in cells endogenously expressing human Cav2.2. Specifically, IMR32 cells endogenously expressing human Cav2.2 were assayed for Ca^2+ influx using a no-wash calcium indicator dye (Calcium 4 dye: Molecular Probes) and FLIPR technology (Lubin, M L; et al. Assay and Drug Development Technologies, 2006, 4(6), 689-694). The IMR32 cells were maintained in MEM media containing 10% (v/v) FBS, 1% (v/v) antibiotic/antimitotic, 1% (v/v) sodium pyruvate and 1% (v/v) MEM NEAA. Following dissociation in 0.05% (v/v) trypsin/EDTA, cells were seeded into black 1×96-well plates (Corning Cellbind) at a density of 1−1.2×10^5 cells/well and incubated in the maintenance media above for 48 hours at 37° C. Immediately prior to performing the assay the media was removed and cells were loaded for 1.5 hours with 1× Calcium 4 dye prepared in HBSS (137 mM NaCl, 5.4 mM KCl, 0.25 mM Na2HPO4, 0.44 mM KH2PO4, 1.3 mM CaCl2, 1 mM MgSO4, 4.2 mM NaHCO3) containing HEPES pH 7.4 at room temperature. After dye loading and a subsequent 60 minute pre-incubation with compounds (full log dilutions from 10 μM to 0.1 nM) in the presence of 1.3 mM CaCl2 and 2 μM nifedipine to block endogenous L-type channels, the external Ca^2+ concentration was increased to 5 mM CaCl2 and the cells concomitantly depolarized with 80 mM KCl to assay channel activity.
# To determine the IC50 values, the percent inhibition of the compound at each concentration was determined relative to the activity in the absence of inhibitor, and data was fitted using non-linear regression sigmoidal dose response curve analysis with GraphPad Prism®. Unless otherwise indicated (*), the reported values are average values from at least two runs (i.e., n≧2).
# T1 sequence (Q00975 whole entry): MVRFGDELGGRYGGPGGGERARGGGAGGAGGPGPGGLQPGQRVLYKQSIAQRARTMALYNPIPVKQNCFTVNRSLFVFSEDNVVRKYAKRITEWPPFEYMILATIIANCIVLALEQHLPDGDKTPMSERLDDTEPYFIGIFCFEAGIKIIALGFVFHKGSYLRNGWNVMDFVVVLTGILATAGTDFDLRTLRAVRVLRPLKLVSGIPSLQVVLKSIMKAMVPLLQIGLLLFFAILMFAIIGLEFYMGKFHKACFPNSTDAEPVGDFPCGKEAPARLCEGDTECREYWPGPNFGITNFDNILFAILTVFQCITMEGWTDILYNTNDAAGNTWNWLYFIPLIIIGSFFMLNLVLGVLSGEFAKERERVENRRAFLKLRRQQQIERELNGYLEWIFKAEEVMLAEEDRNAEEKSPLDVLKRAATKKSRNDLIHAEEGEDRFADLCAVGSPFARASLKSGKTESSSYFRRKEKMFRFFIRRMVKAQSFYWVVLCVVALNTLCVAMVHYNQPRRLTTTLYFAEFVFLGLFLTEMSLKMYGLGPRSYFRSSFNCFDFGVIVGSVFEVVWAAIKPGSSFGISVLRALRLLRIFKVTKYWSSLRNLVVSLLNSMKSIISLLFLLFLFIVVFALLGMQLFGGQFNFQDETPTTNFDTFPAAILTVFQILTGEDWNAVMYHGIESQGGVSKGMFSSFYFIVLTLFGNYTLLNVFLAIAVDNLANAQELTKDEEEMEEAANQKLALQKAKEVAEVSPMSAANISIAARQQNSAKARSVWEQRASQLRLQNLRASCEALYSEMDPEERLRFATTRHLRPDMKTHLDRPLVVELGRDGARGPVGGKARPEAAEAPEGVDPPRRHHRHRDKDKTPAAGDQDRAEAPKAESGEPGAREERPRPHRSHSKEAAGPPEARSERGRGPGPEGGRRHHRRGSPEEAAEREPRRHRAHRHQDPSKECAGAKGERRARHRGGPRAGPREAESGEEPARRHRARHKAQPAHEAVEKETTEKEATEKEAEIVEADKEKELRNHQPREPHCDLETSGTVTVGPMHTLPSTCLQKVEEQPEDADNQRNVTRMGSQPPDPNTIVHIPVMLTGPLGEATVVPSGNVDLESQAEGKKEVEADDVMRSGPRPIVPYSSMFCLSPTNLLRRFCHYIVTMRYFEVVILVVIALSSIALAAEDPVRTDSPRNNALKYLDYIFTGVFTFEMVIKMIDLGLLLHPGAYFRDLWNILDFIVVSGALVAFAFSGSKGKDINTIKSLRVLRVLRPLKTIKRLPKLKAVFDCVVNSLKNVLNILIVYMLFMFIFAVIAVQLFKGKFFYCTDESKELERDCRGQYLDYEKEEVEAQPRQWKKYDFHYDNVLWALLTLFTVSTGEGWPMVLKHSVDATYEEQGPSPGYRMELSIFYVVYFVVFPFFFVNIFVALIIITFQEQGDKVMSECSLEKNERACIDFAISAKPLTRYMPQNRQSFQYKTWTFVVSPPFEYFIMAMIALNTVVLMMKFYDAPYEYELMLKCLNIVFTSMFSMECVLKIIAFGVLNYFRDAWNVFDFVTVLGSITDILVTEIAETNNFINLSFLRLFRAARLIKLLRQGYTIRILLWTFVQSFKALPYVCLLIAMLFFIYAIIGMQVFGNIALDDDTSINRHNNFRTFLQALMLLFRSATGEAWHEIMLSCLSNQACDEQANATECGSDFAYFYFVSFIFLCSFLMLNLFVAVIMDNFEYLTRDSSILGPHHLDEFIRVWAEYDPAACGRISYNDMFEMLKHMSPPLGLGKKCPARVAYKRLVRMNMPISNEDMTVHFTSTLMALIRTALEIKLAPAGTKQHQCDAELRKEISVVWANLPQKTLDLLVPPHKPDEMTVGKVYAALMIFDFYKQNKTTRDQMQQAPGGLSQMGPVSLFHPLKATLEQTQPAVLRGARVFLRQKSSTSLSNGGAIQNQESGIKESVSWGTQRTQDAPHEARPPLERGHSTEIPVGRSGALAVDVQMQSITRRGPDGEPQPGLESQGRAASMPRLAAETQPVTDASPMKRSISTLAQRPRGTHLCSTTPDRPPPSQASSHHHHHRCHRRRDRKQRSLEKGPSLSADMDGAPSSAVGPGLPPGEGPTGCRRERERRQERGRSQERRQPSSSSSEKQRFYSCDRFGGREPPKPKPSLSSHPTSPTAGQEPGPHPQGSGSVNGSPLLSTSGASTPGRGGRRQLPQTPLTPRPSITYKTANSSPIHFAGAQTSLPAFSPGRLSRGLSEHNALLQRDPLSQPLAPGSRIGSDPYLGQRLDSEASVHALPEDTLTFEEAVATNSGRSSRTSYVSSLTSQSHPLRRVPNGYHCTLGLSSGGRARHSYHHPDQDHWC
# T1 sequence (P54284 whole entry partner): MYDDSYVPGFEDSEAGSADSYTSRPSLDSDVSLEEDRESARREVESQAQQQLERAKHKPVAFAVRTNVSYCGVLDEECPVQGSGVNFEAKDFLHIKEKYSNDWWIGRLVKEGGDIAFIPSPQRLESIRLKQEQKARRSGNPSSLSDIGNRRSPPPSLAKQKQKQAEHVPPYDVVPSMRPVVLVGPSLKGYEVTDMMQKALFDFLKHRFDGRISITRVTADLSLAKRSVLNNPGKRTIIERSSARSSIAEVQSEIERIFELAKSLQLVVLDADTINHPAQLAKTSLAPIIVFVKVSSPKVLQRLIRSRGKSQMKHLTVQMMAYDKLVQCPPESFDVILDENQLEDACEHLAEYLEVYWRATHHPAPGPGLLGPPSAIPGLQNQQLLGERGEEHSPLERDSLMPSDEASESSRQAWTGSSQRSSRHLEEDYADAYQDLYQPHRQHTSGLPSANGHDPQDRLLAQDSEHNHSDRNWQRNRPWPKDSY
# T1 sequence (P54289 25-956 partner limits assumed): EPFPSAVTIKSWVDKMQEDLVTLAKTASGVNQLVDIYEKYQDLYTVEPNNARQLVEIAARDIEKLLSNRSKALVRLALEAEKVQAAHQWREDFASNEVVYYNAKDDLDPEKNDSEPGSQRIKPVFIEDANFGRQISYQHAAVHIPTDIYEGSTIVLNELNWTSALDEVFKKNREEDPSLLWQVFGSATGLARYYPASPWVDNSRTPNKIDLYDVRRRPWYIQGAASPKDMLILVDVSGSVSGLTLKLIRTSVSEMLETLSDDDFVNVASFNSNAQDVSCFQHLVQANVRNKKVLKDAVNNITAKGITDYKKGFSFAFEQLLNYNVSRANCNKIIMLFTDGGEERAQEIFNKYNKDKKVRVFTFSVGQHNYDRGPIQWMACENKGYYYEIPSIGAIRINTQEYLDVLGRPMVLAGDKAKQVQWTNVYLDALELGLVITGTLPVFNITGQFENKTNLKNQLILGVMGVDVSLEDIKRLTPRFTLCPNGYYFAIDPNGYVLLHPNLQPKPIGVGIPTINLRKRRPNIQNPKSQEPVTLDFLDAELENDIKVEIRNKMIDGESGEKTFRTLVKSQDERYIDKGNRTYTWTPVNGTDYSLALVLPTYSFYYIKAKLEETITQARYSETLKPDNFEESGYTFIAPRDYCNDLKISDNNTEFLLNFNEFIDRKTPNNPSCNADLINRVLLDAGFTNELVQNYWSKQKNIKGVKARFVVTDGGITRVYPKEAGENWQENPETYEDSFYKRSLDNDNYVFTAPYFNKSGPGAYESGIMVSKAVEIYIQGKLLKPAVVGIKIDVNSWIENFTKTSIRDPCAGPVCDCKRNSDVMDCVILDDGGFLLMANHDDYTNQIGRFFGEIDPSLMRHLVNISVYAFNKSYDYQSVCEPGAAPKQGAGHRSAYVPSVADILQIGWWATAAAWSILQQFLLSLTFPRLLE
# T1 sequence (P54289 957-1103 partner limits assumed): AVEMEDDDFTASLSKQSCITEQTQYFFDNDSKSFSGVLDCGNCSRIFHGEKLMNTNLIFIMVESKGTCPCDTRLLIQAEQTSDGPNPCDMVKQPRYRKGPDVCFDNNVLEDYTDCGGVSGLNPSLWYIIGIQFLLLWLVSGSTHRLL
row,SMILES,IC50 [nM]
1,"O=C1[C@@H]2C[C@@H](Oc3cnc(C4CC4)cn3)CN2CCCN1Cc1ccc(F)c(C(F)(F)F)c1 [Example 26, (8R,9aS)-8-[(5-cyclopropylpyrazin-2-yl)oxy]-2-[4-fluoro-3-(trifluoromethyl)benzyl]octahydro-1H-pyrrolo[1,2-a][1,4]diazepin-1-one]",1100
2,"O=C1[C@@H]2C[C@@H](Oc3cnc(C4CC4)cn3)CN2CCCN1c1cccc(C(F)(F)F)c1 [Example 27, (8R,9aS)-8-[(5-cyclopropylpyrazin-2-yl)oxy]-2-[3-(trifluoromethyl)phenyl]octahydro-1H-pyrrolo[1,2-a][1,4]diazepin-1-one]",10000
3,"O=C1CCN(S(=O)(=O)c2cccc(C(F)(F)F)c2)C[C@@H]2C[C@@H](Oc3cnc(C4CC4)cn3)CN12 [Example 28, (8R,9aS)-8-[(5-cyclopropylpyrazin-2-yl)oxy]-2-{[3-(trifluoromethyl)phenyl]sulfonyl}octahydro-5H-pyrrolo[1,2-a][1,4]diazepin-5-one]",1830
4,"O=C1CCN(S(=O)(=O)c2ccc(C(F)(F)F)cc2)C[C@@H]2C[C@@H](Oc3cnc(C4CC4)cn3)CN12 [Example 29, (8R,9aS)-8-[(5-cyclopropylpyrazin-2-yl)oxy]-2-{[4-(trifluoromethyl)phenyl]sulfonyl}octahydro-5H-pyrrolo[1,2-a][1,4]diazepin-5-one]",490
5,"O=C1CCN(c2ccc(C(F)(F)F)cn2)C[C@@H]2C[C@H](Oc3cnc(C4CC4)cn3)CN12 [Example 30, (8S,9aS)-8-[(5-cyclopropylpyrazin-2-yl)oxy]-2-[5-(trifluoromethyl)pyridin-2-yl]octahydro-5H-pyrrolo[1,2-a][1,4]diazepin-5-one]",6340
6,"O=C1CCN(S(=O)(=O)c2cccc(C(F)(F)F)c2)C[C@@H]2C[C@@H](Oc3ccc(C(F)(F)F)cn3)CN12 [Example 31, (8R,9aS)-2-{[3-(trifluoromethyl)phenyl]sulfonyl}-8-{[5-(trifluoromethyl)pyridin-2-yl]oxy}octahydro-5H-pyrrolo[1,2-a][1,4]diazepin-5-one]",600
7,"O=C(c1ccc(C(F)(F)F)cc1)N1CCC(=O)N2C[C@H](Oc3cnc(C4CC4)cn3)C[C@H]2C1 [Example 33, (8R,9aS)-8-[(5-cyclopropylpyrazin-2-yl)oxy]-2-[4-(trifluoromethyl)benzoyl]octahydro-5H-pyrrolo[1,2-a][1,4]diazepin-5-one]",3730
8,"O=C(c1cccc(C(F)(F)F)c1F)N1CCC(=O)N2C[C@H](Oc3cnc(C4CC4)cn3)C[C@H]2C1 [Example 34, (8R,9aS)-8-[(5-cyclopropylpyrazin-2-yl)oxy]-2-[2-fluoro-3-(trifluoromethyl)benzoyl]octahydro-5H-pyrrolo[1,2-a][1,4]diazepin-5-one]",1010
9,"O=C(c1ccc(C(F)(F)F)c(F)c1)N1CCC(=O)N2C[C@H](Oc3cnc(C4CC4)cn3)C[C@H]2C1 [Example 35, (8R,9aS)-8-[(5-cyclopropylpyrazin-2-yl)oxy]-2-[3-fluoro-4-(trifluoromethyl)benzoyl]octahydro-5H-pyrrolo[1,2-a][1,4]diazepin-5-one]",1030
10,"O=C(c1ccc(F)c(C(F)(F)F)c1)N1CCC(=O)N2C[C@H](Oc3cnc(C4CC4)cn3)C[C@H]2C1 [Example 36, (8R,9aS)-8-[(5-cyclopropylpyrazin-2-yl)oxy]-2-[4-fluoro-3-(trifluoromethyl)benzoyl]octahydro-5H-pyrrolo[1,2-a][1,4]diazepin-5-one]",1780
11,"O=C(c1cccc(OC(F)(F)F)c1)N1CCC(=O)N2C[C@H](Oc3cnc(C4CC4)cn3)C[C@H]2C1 [Example 37, (8R,9aS)-8-[(5-cyclopropylpyrazin-2-yl)oxy]-2-[3-(trifluoromethoxy)benzoyl]octahydro-5H-pyrrolo[1,2-a][1,4]diazepin-5-one]",1140
12,"O=C(c1ccc(OC(F)(F)F)cc1)N1CCC(=O)N2C[C@H](Oc3cnc(C4CC4)cn3)C[C@H]2C1 [Example 38, (8R,9aS)-8-[(5-cyclopropylpyrazin-2-yl)oxy]-2-[4-(trifluoromethoxy)benzoyl]octahydro-5H-pyrrolo[1,2-a][1,4]diazepin-5-one]",2810
13,O=C(Cc1cccc(C(F)(F)F)c1)N1CCC(=O)N2C[C@H](Oc3cnc(C4CC4)cn3)C[C@H]2C1 [Example 39],2080
14,"O=C(C(O)c1cccc(C(F)(F)F)c1)N1CCC(=O)N2C[C@H](Oc3cnc(C4CC4)cn3)C[C@H]2C1 (stereo partly drawn) [Example 40, (8R,9aS)-8-[(5-cyclopropylpyrazin-2-yl)oxy]-2-{hydroxy[3-(trifluoromethyl)phenyl]acetyl}octahydro-5H-pyrrolo[1,2-a][1,4]diazepin-5-one]",4700
15,"CNC(C(=O)N1CCC(=O)N2C[C@H](Oc3cnc(C4CC4)cn3)C[C@H]2C1)c1cccc(C(F)(F)F)c1 (stereo partly drawn) [Example 41, (8R,9aS)-8-[(5-cyclopropylpyrazin-2-yl)oxy]-2-{(methylamino)[3-(trifluoromethyl)phenyl]acetyl}octahydro-5H-pyrrolo[1,2-a][1,4]diazepin-5-one]",3450
16,"O=C1CCN(Cc2cccc(OC(F)(F)F)c2)C[C@@H]2C[C@@H](Oc3cnc(C4CC4)cn3)CN12 [Example 43, (8R,9aS)-8-[(5-cyclopropylpyrazin-2-yl)oxy]-2-[3-(trifluoromethoxy)benzyl]octahydro-5H-pyrrolo[1,2-a][1,4]diazepin-5-one]",1110
17,"O=C1CCN(Cc2cccc(C(F)(F)F)c2)C[C@@H]2C[C@@H](Oc3ccc(C(F)(F)F)cn3)CN12 [Example 45, (8R,9aS)-2-[3-(trifluoromethyl)benzyl]-8-{[5-(trifluoromethyl)pyridin-2-yl]oxy}octahydro-5H-pyrrolo[1,2-a][1,4]diazepin-5-one]",620
18,"O=C1CCN(c2ccc(C(F)(F)F)cn2)C[C@H]2C[C@H](Oc3cnc(C4CC4)cn3)CN12 [Example 46, (8S,9aR)-8-[(5-cyclopropylpyrazin-2-yl)oxy]-2-[5-(trifluoromethyl)pyridin-2-yl]octahydro-5H-pyrrolo[1,2-a][1,4]diazepin-5-one]",5070
19,"O=C1CCN(c2cccc(C(F)(F)F)n2)C[C@@H]2C[C@@H](Oc3cnc(C4CC4)cn3)CN12 [Example 48, (8R,9aS)-8-[(5-cyclopropylpyrazin-2-yl)oxy]-2-[6-(trifluoromethyl)pyridin-2-yl]octahydro-5H-pyrrolo[1,2-a][1,4]diazepin-5-one]",1540
20,"O=C1CCN(c2ncc(C(F)(F)F)cc2Cl)C[C@@H]2C[C@@H](Oc3cnc(C4CC4)cn3)CN12 [Example 49, (8R,9aS)-2-[3-chloro-5-(trifluoromethyl)pyridin-2-yl]-8-[(5-cyclopropylpyrazin-2-yl)oxy]octahydro-5H-pyrrolo[1,2-a][1,4]diazepin-5-one]",2130
21,"O=C1CCN(c2ncc(C(F)(F)F)cc2F)C[C@@H]2C[C@@H](Oc3cnc(C4CC4)cn3)CN12 [Example 50, (8R,9aS)-8-[(5-cyclopropylpyrazin-2-yl)oxy]-2-[3-fluoro-5-(trifluoromethyl)pyridin-2-yl]octahydro-5H-pyrrolo[1,2-a][1,4]diazepin-5-one]",2460
